Measured values: patent publication EP0549857A1, “Antibacterial quinolone carboxylic acid derivatives” (KOREA RESEARCH INSTITUTE OF CHEMICAL TECHNOLOGY, priority 1991, dated 1993)
Values after ≈ are worked out from the molar mass of the structure shown. Like-named read-outs stand apart in the source and are kept apart here.

Columns and labels:
in vivo = details: female, ICR, mouse
Description: Test compounds were administered to female ICR mice weighing 20 to 25g and on day 14, LD₅₀ was calculated from the number of survived mice by the probit analysis.

Escherichia coli DC 2 = assay: In vitro anti-bacterial activity test (MIC, two-fold agar dilution); assay type: cell-based; details: DC2, Mueller-Hinton agar, 10⁷ CFU/mℓ, 37°C, 18 hours, read-out: MIC
[1] = system: Pseudomonas aeruginosa 1592E; assay: as above; assay type: cell-based; details: Mueller-Hinton agar, 10⁷ CFU/mℓ, 37°C, 18 hours, read-out: MIC
[2] = system: Pseudomonas aeruginosa 1771; assay: as above; assay type: cell-based
[3] = system: Enterobacter cloacae 1321E; assay: as above; assay type: cell-based; details: Mueller-Hinton agar, 10⁷ CFU/mℓ, 37°C, 18 hours, read-out: MIC
[4] = system: Pseudomonas aeruginosa 1771M; assay: as above; assay type: cell-based; details: 18 h
Salmonella typhimurium = assay: as above; assay type: cell-based; details: Salmonella enterica, Mueller-Hinton agar, 10⁷ CFU/mℓ, 37°C, 18 hours, read-out: MIC
Escherichia coli 1507E = assay: as above; assay type: cell-based; details: Mueller-Hinton agar, 10⁷ CFU/mℓ, 37°C, 18 hours, read-out: MIC
Escherichia coli OTEM = assay: as above; assay type: cell-based; details: Mueller-Hinton agar, 10⁷ CFU/mℓ, 37°C, 18 hours, read-out: MIC
Escherichia coli DC 0 = assay: as above; assay type: cell-based; details: DC0, Mueller-Hinton agar, 10⁷ CFU/mℓ, 37°C, 18 hours, read-out: MIC
Escherichia coli O 55 = assay: as above; assay type: cell-based; details: O55, Mueller-Hinton agar, 10⁷ CFU/mℓ, 37°C, 18 hours, read-out: MIC
[5] = system: Pseudomonas aeruginosa 9027; assay: as above; assay type: cell-based
[6] = system: Staphylococcus aureus SG 511; assay: as above; assay type: cell-based
[7] = system: Klebsiella aerogenes 1082E; assay: as above; assay type: cell-based; details: Mueller-Hinton agar, 10⁷ CFU/mℓ, 37°C, 18 hours, read-out: MIC
[8] = system: Streptococcus faecium MD 8b; assay: as above; assay type: cell-based; details: Enterococcus faecium, MD8B
[9] = system: Staphylococcus aureus 285; assay: as above; assay type: cell-based
Enterobacter cloacae P99 = assay: as above; assay type: cell-based; details: Mueller-Hinton agar, 10⁷ CFU/mℓ, 37°C, 18 hours, read-out: MIC
[10] = system: Streptococcus pyogenes 308A; assay: as above; assay type: cell-based; details: Mueller-Hinton agar, 10⁷ CFU/mℓ, 37°C, 18 hours, read-out: MIC
[11] = system: Staphylococcus aureus 503; assay: as above; assay type: cell-based
[12] = system: Klebsiella aerogenes 1522E; assay: as above; assay type: cell-based; details: Mueller-Hinton agar, 10⁷ CFU/mℓ, 37°C, 18 hours, read-out: MIC
[13] = system: Streptococcus pyogenes 77A; assay: as above; assay type: cell-based
S. aureus 17740 = assay: Preventive effect on the systemic infection; assay type: in vivo; details: Staphylococcus aureus, 17740, in Mus musculus, S. aureus 17740 intraperitoneal infection, NMRI mice, survival on day 7, probit analysis, read-out: ED₅₀
Description: (§1) 10 fold of the pathogen which leads to 100% lethality were injected intraperitoneally to male and female NMRI mice weighing 18 to 20g. Immediately and after 4 hours, the dose of test compounds which was determined by two-fold serial dilution method was administered orally or subcutaneously; and on day 7, the effectiveness was evaluated in terms of ED₅₀ calculated from the number of survived mice by the probit analysis.

P. mirabilis = assay: Preventive effect on the systemic infection; assay type: in vivo; details: Proteus mirabilis, in Mus musculus, P. mirabilis intraperitoneal infection, NMRI mice, survival on day 7, probit analysis, read-out: ED₅₀
Description: as §1

[14] = Pseudomonas aeruginosa 1771, Mueller-Hinton agar, 10⁷ CFU/mℓ, 37°C, 18 hours, read-out: MIC
[15] = Pseudomonas aeruginosa 9027, Mueller-Hinton agar, 10⁷ CFU/mℓ, 37°C, 18 hours, read-out: MIC
[16] = SG511, Staphylococcus aureus SG 511, Mueller-Hinton agar, 10⁷ CFU/mℓ, 37°C, 18 hours, read-out: MIC
[17] = Streptococcus faecium MD 8b, Mueller-Hinton agar, 10⁷ CFU/mℓ, 37°C, 18 hours, read-out: MIC
[18] = Staphylococcus aureus 285, Mueller-Hinton agar, 10⁷ CFU/mℓ, 37°C, 18 hours, read-out: MIC
[19] = Staphylococcus aureus 503, Mueller-Hinton agar, 10⁷ CFU/mℓ, 37°C, 18 hours, read-out: MIC
[20] = Streptococcus pyogenes 77A, Mueller-Hinton agar, 10⁷ CFU/mℓ, 37°C, 18 hours, read-out: MIC
[21] = Oral Administration immediately and after 4 hours
[22] = Subcutaneous Injection immediately and after 4 hours

`COc1c(N2CC3=C(C2)C(N)CC3)c(F)cc2c(=O)c(C(=O)O)cn(C3CC3)c12` (stereo not shown) [Example 6, 7-[6-amino-3-azabicyclo[3,3,0]oct-1(5)ene-3-yl]-1-cyclopropyl-6-fluoro-8-methoxy-1,4-dihydro-4-oxoquinoline-3-carboxylic acid] showed an LD50 at 14 day (in vivo; ip) of 755 mg/kg and an LD50 at 14 day (in vivo; po) of 4300 mg/kg.

Work on `CNC1CCC2=C1CN(c1c(F)c(N)c3c(=O)c(C(=O)O)cn(C4CC4)c3c1F)C2` (stereo not shown) [Example 11, 7-[6-methylamino-3-azabicyclo[3,3,0]oct-1(5)ene-3-yl]-5-amino-1-cyclopropyl-6,8-difluoro-1,4-dihydro-4-oxoquinoline-3-carboxylic acid] yielded an MIC (Escherichia coli DC 2) of 0.049 µg/mL (≈ 0.118 µM), an MIC [1] of 3.12 µg/mL (≈ 7.5 µM) and an MIC [2, 14] of 3.12 µg/mL (≈ 7.5 µM). The MIC [3] was 0.049 µg/mL (≈ 0.118 µM), the MIC [4] was 1.56 µg/mL (≈ 3.75 µM) and the MIC (Salmonella typhimurium) was 0.098 µg/mL (≈ 0.235 µM). For the same compound, the MIC (Escherichia coli 1507E) was 0.098 µg/mL (≈ 0.235 µM), the MIC (Escherichia coli OTEM) was 0.049 µg/mL (≈ 0.118 µM) and the MIC (Escherichia coli DC 0) was 1.56 µg/mL (≈ 3.75 µM). The MIC (Escherichia coli O 55) was 0.025 µg/mL (≈ 0.06 µM), the MIC [5, 15] was 3.12 µg/mL (≈ 7.5 µM) and the MIC [6, 16] was 0.195 µg/mL (≈ 0.468 µM). For the same compound, the MIC [7] was 0.007 µg/mL (≈ 0.0168 µM), the MIC [8, 17] was 0.195 µg/mL (≈ 0.468 µM) and the MIC [9, 18] was 0.049 µg/mL (≈ 0.118 µM). For the same compound, the MIC (Enterobacter cloacae P99) was 0.195 µg/mL (≈ 0.468 µM), the MIC [10] was 0.391 µg/mL (≈ 0.939 µM) and the MIC [11, 19] was 0.049 µg/mL (≈ 0.118 µM). It also gave an MIC [12] of 0.195 µg/mL (≈ 0.468 µM) and an MIC [13, 20] of 0.195 µg/mL (≈ 0.468 µM).

Work on `O=C(O)c1cn(C2CC2)c2cc(N3CCNCC3)c(F)cc2c1=O` [Ciprofloxacin, reference compound] yielded an MIC (Escherichia coli DC 2) of 0.195 µg/mL (≈ 0.589 µM), an MIC [1] of 0.391 µg/mL (≈ 1.18 µM) and an MIC ([2]; Pseudomonas aeruginosa, 1771, 18 h) of 0.781 µg/mL (≈ 2.36 µM). It also gave an MIC [4] of 0.195 µg/mL (≈ 0.589 µM), an MIC (Salmonella typhimurium) of 0.049 µg/mL (≈ 0.148 µM) and an ED50 (S. aureus 17740; [21]) of over 200 mg/kg. The ED50 (S. aureus 17740; [22]) was 132 mg/kg, the ED50 (P. mirabilis; [21]) was 0.92 mg/kg and the ED50 (P. mirabilis; [22]) was 0.28 mg/kg. The MIC (Escherichia coli DC 0) was 0.391 µg/mL (≈ 1.18 µM), the MIC (Escherichia coli O 55) was 0.007 µg/mL (≈ 0.0211 µM) and the MIC ([5]; Pseudomonas aeruginosa, 9027, 18 h) was 0.781 µg/mL (≈ 2.36 µM). The MIC ([6]; Staphylococcus aureus, SG511, 18 h) was 0.781 µg/mL (≈ 2.36 µM), the MIC ([8]; 18 h) was 0.781 µg/mL (≈ 2.36 µM) and the MIC ([9]; Staphylococcus aureus, 285, 18 h) was 0.781 µg/mL (≈ 2.36 µM). For the same compound, the MIC [10] was 3.12 µg/mL (≈ 9.43 µM), the MIC ([11]; Staphylococcus aureus, 503, 18 h) was 0.781 µg/mL (≈ 2.36 µM) and the MIC ([13]; Streptococcus pyogenes, 77A, 18 h) was 0.781 µg/mL (≈ 2.36 µM).

Work on `NC1CCC2=C1CN(c1c(F)cc3c(=O)c(C(=O)O)cn(C4CC4)c3c1Cl)C2` (stereo not shown) [Example 3, 7-[6-amino-3-azabicyclo[3,3,0]oct-1(5)ene-3-yl]-1-cyclopropyl-8-chloro-6-fluoro-1,4-dihydro-4-oxoquinoline-3-carboxylic acid] yielded an MIC (Escherichia coli DC 2) of 0.049 µg/mL (≈ 0.121 µM), an MIC [1] of 1.56 µg/mL (≈ 3.87 µM) and an MIC [2, 14] of 1.56 µg/mL (≈ 3.87 µM). The MIC [3] was 0.098 µg/mL (≈ 0.243 µM), the MIC [4] was 0.391 µg/mL (≈ 0.968 µM) and the MIC (Salmonella typhimurium) was 0.049 µg/mL (≈ 0.121 µM). For the same compound, the MIC (Escherichia coli 1507E) was 0.098 µg/mL (≈ 0.243 µM), the ED50 (P. mirabilis; [21]) was 5.9 mg/kg and the ED50 (P. mirabilis; [22]) was 1.43 mg/kg. It also gave an MIC (Escherichia coli OTEM) of 0.098 µg/mL (≈ 0.243 µM), an MIC (Escherichia coli DC 0) of 0.781 µg/mL (≈ 1.93 µM) and an MIC (Escherichia coli O 55) of 0.049 µg/mL (≈ 0.121 µM). For the same compound, the MIC [5, 15] was 1.56 µg/mL (≈ 3.87 µM), the LD50 at 14 day (in vivo; ip) was 731 mg/kg and the LD50 at 14 day (in vivo; po) was 4100 mg/kg. It also gave an MIC [6, 16] of 0.025 µg/mL (≈ 0.0619 µM), an MIC [7] of 0.013 µg/mL (≈ 0.0322 µM) and an MIC [8, 17] of 0.098 µg/mL (≈ 0.243 µM). The MIC [9, 18] was 0.049 µg/mL (≈ 0.121 µM), the MIC (Enterobacter cloacae P99) was 0.098 µg/mL (≈ 0.243 µM) and the MIC [10] was 0.195 µg/mL (≈ 0.483 µM). The MIC [11, 19] was 0.049 µg/mL (≈ 0.121 µM), the MIC [12] was 0.195 µg/mL (≈ 0.483 µM) and the MIC [13, 20] was 0.049 µg/mL (≈ 0.121 µM).

Compound `CC1COc2c(N3CCN(C)CC3)c(F)cc3c(=O)c(C(=O)O)cn1c23` (stereo not shown) [Ofloxacin, reference compound] has an MIC (Escherichia coli DC 2) of 0.391 µg/mL (≈ 1.08 µM), an MIC [1] of 1.56 µg/mL (≈ 4.33 µM) and an MIC [2, 14] of 1.56 µg/mL (≈ 4.33 µM). For the same compound, the MIC [3] was 0.049 µg/mL (≈ 0.136 µM), the MIC [4] was 0.391 µg/mL (≈ 1.08 µM) and the MIC (Salmonella typhimurium) was 0.098 µg/mL (≈ 0.271 µM). For the same compound, the MIC (Escherichia coli 1507E) was 0.098 µg/mL (≈ 0.271 µM), the ED50 (S. aureus 17740; [21]) was over 200 mg/kg and the ED50 (S. aureus 17740; [22]) was 200 mg/kg. It also gave an ED50 (P. mirabilis; [21]) of 2.27 mg/kg, an ED50 (P. mirabilis; [22]) of 0.53 mg/kg and an MIC (Escherichia coli OTEM) of 0.049 µg/mL (≈ 0.136 µM). The MIC (Escherichia coli DC 0) was 0.781 µg/mL (≈ 2.16 µM), the MIC (Escherichia coli O 55) was 0.025 µg/mL (≈ 0.0692 µM) and the MIC [5, 15] was 1.56 µg/mL (≈ 4.33 µM). For the same compound, the MIC [6, 16] was 0.391 µg/mL (≈ 1.08 µM), the MIC [7] was 0.025 µg/mL (≈ 0.0692 µM) and the MIC [8, 17] was 0.781 µg/mL (≈ 2.16 µM). For the same compound, the MIC [9, 18] was 0.391 µg/mL (≈ 1.08 µM), the MIC (Enterobacter cloacae P99) was 0.098 µg/mL (≈ 0.271 µM) and the MIC [10] was 3.12 µg/mL (≈ 8.65 µM). It also gave an MIC [11, 19] of 0.391 µg/mL (≈ 1.08 µM), an MIC [12] of 0.098 µg/mL (≈ 0.271 µM) and an MIC [13, 20] of 1.56 µg/mL (≈ 4.33 µM).
